Tests used:
Assay type in all cases: biochemical
MMP-13 = MMP-13 (Homo sapiens, UniProt P45452); experiment: MMP-13 inhibition (Table 1); conditions: read-out: IC50 (nM) MMP-13
MMP-1 = target: T1, MMP-1 (Homo sapiens, UniProt P03956); experiment: In Vitro Collagenase Assay (MMP-1); conditions: human recombinant fibroblast collagenase
T1 construct: human recombinant fibroblast collagenase (truncated, mw=18,828)
T1 sequence (P03956 100-269 limits assumed): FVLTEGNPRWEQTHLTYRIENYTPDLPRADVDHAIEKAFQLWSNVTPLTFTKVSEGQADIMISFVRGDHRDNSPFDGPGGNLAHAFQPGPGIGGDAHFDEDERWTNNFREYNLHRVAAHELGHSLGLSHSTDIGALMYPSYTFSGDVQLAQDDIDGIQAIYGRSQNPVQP
Excerpt: In Vitro Collagenase Assay
This assay was based on the cleavage of a peptide substrate ((Dnp-Pro-Cha-Gly-Cys(Me)-His-Ala-Lys(NMa)-NH2), available from Peptide International, Inc.) by collagenase releasing the fluorescent NMa group which was quantitated on the fluorometer as disclosed in Bickett et al., "A High Throughput Fluorogenic Substrate for Interstitial Collagenase (MMP-1) and Gelatinase (MMP-9)", Anal. Biochem., 212:58-64, (1993). Dnp quenches the NMa fluorescence in the intact substrate.
The assay was run in HCBC assay buffer (50 mM HEPES, pH 7.0, 5 mM Ca^+2, 0.02% Brij, 0.5% Cysteine), with human recombinant fibroblast collagenase (truncated, mw=18,828. from Wyeth-Ayerst Research, Radnor, Pa.). The substrate was dissolved in methanol and stored frozen in 1 mM aliquots. Collagenase was stored frozen in buffer in 25 μM aliquots. In conducting the assay, the substrate was dissolved in HCBC buffer to a final concentration of 10 μM and collagenase to a final concentration of 5 nM. The compounds being examined were dissolved in methanol, DMSO, or HCBC. The methanol and DMSO were diluted in HCBC to <1.0%. The compounds were added to a 96 well plate containing enzyme and the reaction was started by the addition of substrate.
(§1) The reaction was read (excitation 340 nm, emission 444 nm) for 10 min. and the increase in fluorescence over time was plotted as a linear line. The slope of the line was calculated representing the reaction rate. The linearity of the reaction rate was confirmed (r^2 >0.85). The mean (x±sem) of the control rate was calculated and compared for statistical significance (p<0.05) with drug-treated rates using Dunnett's multiple comparison test.

TACE = target: T2, TACE (Homo sapiens, UniProt P78536); experiment: Procedure for Measuring TACE Inhibition
T2 construct: purchased Immunex
Experimental: Procedure for Measuring TACE Inhibition
The plates were incubated for 10 minutes at room temperature. The reaction was initiated by addition of a fluorescent peptidyl substrate (final concentration 100 μM) to each well with shaking on a shaker for 5 sec.
as §1, with “420” for “444”, “and this represents” for “representing”, “The linearity of the reaction rate was confirmed (r^2 >0.85).” left out

MMP-9 = MMP-9 (Homo sapiens, UniProt P14780); experiment: In Vitro Gelatinase Assay (MMP-9); conditions: human neutrophil gelatinase B
Experimental: The enzyme activity is measured by the rate of the color increase. The thiopeptide substrate was made up fresh as a 20 mM stock in 100% DMSO and the DTNB was dissolved in 100% DMSO as a 100 mM stock and stored in the dark at room temperature. The substrate and the DTNB were diluted together to 1 mM with substrate buffer (50 mM HEPES, pH 7.5, 5 mM CaCl2) before use. […] The assay buffer, enzyme. […] The increase in OD405 was plotted and the slope of the line was calculated. The slope represents the reaction rate.

T2 sequence (P78536 215-824): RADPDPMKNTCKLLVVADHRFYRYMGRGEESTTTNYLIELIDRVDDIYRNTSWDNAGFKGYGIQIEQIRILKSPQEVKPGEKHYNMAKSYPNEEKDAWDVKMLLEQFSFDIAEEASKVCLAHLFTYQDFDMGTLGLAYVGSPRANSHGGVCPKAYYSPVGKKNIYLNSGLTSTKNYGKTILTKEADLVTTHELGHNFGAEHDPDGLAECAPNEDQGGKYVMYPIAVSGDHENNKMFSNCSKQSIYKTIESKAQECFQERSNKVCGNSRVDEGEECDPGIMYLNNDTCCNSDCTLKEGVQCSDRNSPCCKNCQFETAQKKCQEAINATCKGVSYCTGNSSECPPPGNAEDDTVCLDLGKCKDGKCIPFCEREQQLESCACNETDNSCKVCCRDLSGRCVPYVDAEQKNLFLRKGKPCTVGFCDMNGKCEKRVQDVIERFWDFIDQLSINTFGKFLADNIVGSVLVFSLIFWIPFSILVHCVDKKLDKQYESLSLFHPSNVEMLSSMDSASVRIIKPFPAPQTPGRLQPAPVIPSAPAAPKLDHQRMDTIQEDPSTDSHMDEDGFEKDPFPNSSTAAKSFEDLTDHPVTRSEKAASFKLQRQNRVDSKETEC
MMP-9, sequence (P14780 94-707): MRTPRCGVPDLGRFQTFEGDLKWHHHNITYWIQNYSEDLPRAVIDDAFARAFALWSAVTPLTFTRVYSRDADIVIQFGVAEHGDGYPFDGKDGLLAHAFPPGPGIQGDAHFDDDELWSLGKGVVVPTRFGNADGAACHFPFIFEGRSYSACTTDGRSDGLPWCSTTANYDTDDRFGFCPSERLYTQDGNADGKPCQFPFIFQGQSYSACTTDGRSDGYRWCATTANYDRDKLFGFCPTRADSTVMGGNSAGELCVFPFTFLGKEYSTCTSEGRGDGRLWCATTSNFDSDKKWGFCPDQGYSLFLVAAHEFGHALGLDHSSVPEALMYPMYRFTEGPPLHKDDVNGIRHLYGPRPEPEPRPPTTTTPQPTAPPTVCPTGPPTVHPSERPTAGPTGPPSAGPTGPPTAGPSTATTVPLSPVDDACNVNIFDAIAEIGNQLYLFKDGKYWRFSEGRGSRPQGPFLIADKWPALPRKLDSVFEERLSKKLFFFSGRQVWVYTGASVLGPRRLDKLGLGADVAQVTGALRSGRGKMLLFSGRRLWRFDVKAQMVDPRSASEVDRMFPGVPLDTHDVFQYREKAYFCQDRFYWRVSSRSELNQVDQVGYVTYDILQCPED

Compound | IC50 (MMP-13) | IC50 (MMP-1) | IC50 (TACE) | IC50 (MMP-9)
COc1ccc(S(=O)(=O)N2Cc3ccccc3N(C(=O)c3cccc(C(F)(F)F)c3)CC2C(=O)NO)cc1 (stereo not shown) [Example 1, 4-(4-Methoxybenzenesulfonyl)-1-(3-trifluoromethylbenzoyl)-2,3,4,5-tetrahydro-1H-[1,4]-benzodiazepine-3-carboxylic acid, Hydroxyamide] | 3.7 nM | 96.2 nM | 352 nM | 5.1 nM
COc1ccc(S(=O)(=O)N2Cc3ccccc3N(S(=O)(=O)c3ccc(C)cc3)CC2C(=O)NO)cc1 (stereo not shown) [Example 2, 4-(4-Metboxybenzenesulfonyl)-1-(4-methylphenylsulfonyl)-2,3,4,5-tetrahydro-1H-[1,4]benzodiazepine-3-carboxylic acid, Hydroxyamide] | 5.1 nM | – | 391 nM | 14.1 nM
COc1ccc(S(=O)(=O)N2CC(C(=O)NO)N(S(=O)(=O)c3ccc(OC)cc3)Cc3ccccc32)cc1 (stereo not shown) [Example 4, 1,4-Bis-(4-Methoxybenzenesulfonyl)-2,3,4,5-tetrahydro-1H-[1,4]benzodiazepine-3-carboxylic acid, Hydroxyamide] | 4.3 nM | 224 nM | 101 ± 3 nM | 12.2 nM
COc1ccc(S(=O)(=O)N2Cc3ccccc3N(C(=O)c3ccccc3)CC2C(=O)NO)cc1 (stereo not shown) [Example 5, 1-Benzoyl-4-(4-methoxybenzenesulfonyl)-2,3,4,5-tetrahydro-1H-[1,4]benzodiazepine-3-carboxylic acid, Hydroxyamide] | 0.4 nM | – | 95 ± 10 nM | 0.56 nM
COc1ccc(S(=O)(=O)N2Cc3ccccc3N(C(=O)c3cccnc3)CC2C(=O)NO)cc1 (stereo not shown) [Example 7, 4-(4-Methoxybenzenesulfonyl)-1-(3-pyridinylcarbonyl)-2,3,4,5-tetrahydro-1H-[1,4]benzodiazepine-3-carboxylic acid, Hydroxyamide] | 0.4 nM | 20.4 nM | 77.7 nM | 0.6 nM
COc1ccc(S(=O)(=O)N2Cc3ccccc3N(C(=O)c3cc(F)ccc3C)CC2C(=O)NO)cc1 (stereo not shown) [Example 11, 4-(4-Methoxybenzenesulfonyl)-1-(2-methyl-5-fluorobenzoyl)-2,3,4,5-tetrahydro-1H-[1,4]benzodiazepine-3-carboxylic acid, Hydroxyamide] | 2.3 nM | 55.4 nM | 271 nM | 3.9 nM
COc1ccc(S(=O)(=O)N2Cc3ccccc3N(C(=O)c3ccccc3-c3ccccc3)CC2C(=O)NO)cc1 (stereo not shown) [Example 14, 1-([1,1'-Biphenyl]-2-carbonyl)-4-(4-methoxybenzenesulfonyl)-2,3,4,5-tetrahydro-1H-[1,4]benzodiazepine-3-carboxylic acid, Hydroxyamide] | 3.7 nM | 542 nM | – | 12.6 nM
COc1ccc(S(=O)(=O)N2Cc3ccccc3N(C(=O)c3ccc(-c4ccccc4)cc3)CC2C(=O)NO)cc1 (stereo not shown) [Example 15, 1-(4-Biphenylcarbonyl)-4-(4-methoxybenzenesulfonyl)-2,3,4,5-tetrahydro-1H-[1,4]benzodiazepine-3-carboxylic acid, Hydroxyamide] | 0.4 nM | 52.7 nM | 199 nM | 0.7 nM
COc1ccc(S(=O)(=O)N2Cc3ccccc3N(C(=O)c3ccc(Cl)cc3Cl)CC2C(=O)NO)cc1 (stereo not shown) [Example 31, 1-(2,4-Dichlorobenzoyl)-4-(4-methoxybenzenesulfonyl)-2,3,4,5-tetrahydro-1H-[1,4]benzodiazepine-3-carboxylic acid, Hydroxyamide] | 2.6 nM | 75.5 nM | – | 3 nM

Further lines, results first:

IC50 (MMP-13) | IC50 (MMP-1) | IC50 (TACE) | IC50 (MMP-9) | Compound
3 nM | 156 nM | 104 ± 8 nM | 7.9 nM | COc1ccc(S(=O)(=O)N2Cc3ccccc3N(S(C)(=O)=O)CC2C(=O)NO)cc1 (stereo not shown) [Example 3, 1-Methanesulfonyl-4-(4-methoxybenzenesulfonyl)-2,3,4,5-tetrahydro-1H-[1,4]benzodiazepine-3-carboxylic acid, Hydroxyamide]
1 nM | 18.4 nM | 103 nM | 1.4 nM | COc1ccc(S(=O)(=O)N2Cc3ccccc3N(C(C)=O)CC2C(=O)NO)cc1 (stereo not shown) [Example 6, 1-Acetyl-4-(4-methoxybenzenesulfonyl)-2,3,4,5-tetrahydro-1H-[1,4]benzodiazepine-3-carboxylic acid, Hydroxyamide]
1.1 nM | 19.7 nM | – | – | COc1ccc(S(=O)(=O)N2Cc3ccccc3N(C(=O)c3cccs3)CC2C(=O)NO)cc1 (stereo not shown) [Example 8, 4-(4-Methoxybenzenesulfonyl)-1-(2-thienylcarbonyl)-2,3,4,5-tetrahydro-1H-[1,4]benzodiazepine-3-carboxylic acid, Hydroxyamide]
1.19 nM | 34.1 nM | 95.2 nM | 1.34 nM | COCC(=O)N1CC(C(=O)NO)N(S(=O)(=O)c2ccc(OC)cc2)Cc2ccccc21 (stereo not shown) [Example 9, 1-Methoxyacetyl-4-(4-methoxybenzenesulfonyl)-2,3,4,5-tetrahydro-1H-[1,4]benzodiazepine-3-carboxylic acid, Hydroxyamide]
2.8 nM | 183 nM | 91 ± 10 nM | 7 nM | CCCS(=O)(=O)N1CC(C(=O)NO)N(S(=O)(=O)c2ccc(OC)cc2)Cc2ccccc21 (stereo not shown) [Example 10, 4-(4-Methoxybenzenesulfonyl)-1-(propane-1-sulfonyl)-2,3,4,5-tetrahydro-1H-[1,4]benzodiazepine-3-carboxylic acid, Hydroxyamide]
– | 523 nM | 207 nM | 17.9 nM | COc1ccc(S(=O)(=O)N2Cc3ccccc3N(C(=O)CCc3ccccc3)CC2C(=O)NO)cc1 (stereo not shown) [Example 12, 4-(4-Methoxybenzenesulfonyl)-1-(3-phenylpropionyl)-2,3,4,5-tetrahydro-1H-[1,4]benzodiazepine-3-carboxylic acid, Hydroxyamide]
2 nM | 54.9 nM | 154 nM | 9.8 nM | COc1ccc(S(=O)(=O)N2Cc3ccccc3N(C(=O)c3ccncc3)CC2C(=O)NO)cc1 (stereo not shown) [Example 13, 4-(4-Methoxybenzenesulfonyl)-1-(4-pyridinylcarbonyl)-2,3,4,5-tetrahydro-1H-[1,4]benzodiazepine-3-carboxylic acid, Hydroxyamide]
1.2 nM | 16.6 nM | 28.5 nM | 1.4 nM | COc1ccc(S(=O)(=O)N2Cc3ccccc3N(C(=O)c3ccco3)CC2C(=O)NO)cc1 (stereo not shown) [Example 40, 1-(2-Furanylcarbonyl)-4-(4-methoxybenzenesulfonyl)-2,3,4,5-tetrahydro-1H-[1,4]benzodiazepine-3-carboxylic acid, Hydroxyamide]
– | 171 nM | 68.5 nM | 4 nM | COc1ccc(S(=O)(=O)N2Cc3ccccc3N(C(=O)C3CC3)CC2C(=O)NO)cc1 (stereo not shown) [Example 55, 1-(Cyclopropylcarbonyl)-4-(4-methoxybenzenesulfonyl)-2,3,4,5-tetrahydro-1H-[1,4]benzodiazepine-3-carboxylic acid, Hydroxyamide]
– | 465 nM | 318 nM | 12.7 nM | COc1ccc(S(=O)(=O)N2Cc3ccccc3N(C(=O)C3CCCCC3)CC2C(=O)NO)cc1 (stereo not shown) [Example 57, 1-(Cyclohexylcarbonyl)-4-(4-methoxybenzenesufonyl)-2,3,4,5-tetrahydro-1H-[1,4]benzodiazepine-3-carboxylic acid, Hydroxyamide]
100 nM | 1000 nM | – | 100 nM | COCCN1CC(C(=O)NO)N(S(=O)(=O)c2ccc(OC)cc2)Cc2ccccc21 (stereo not shown) [Example 62, 4-(4-Methoxybenzenesulfonyl)-1-(2-methoxyetbyl)-2,3,4,5-tetrahydro-1H-[1,4]benzodiazepine-3-carboxylic acid, Hydroxyamide]

— patent US6071903A, “2,3,4,5-tetrahydro-1H-[1,4]-benzodiazepine-3-hydroxyamic acids” (American Cyanamid Company, priority 1999, dated 2000)
